Laboratory results reported in ChEMBL document CHEMBL1201862, “PubChem BioAssay data set” (2004).
Active and inactive are the calls of the source.

How the values were obtained:
[1] = molecular target: Delta-type opioid receptor (Homo sapiens, UniProt P41143); assay: Counterscreen for agonists of heterodimerization of the mu 1 (OPRM1) and delta 1 (OPRD1) opioid receptors: Luminescence-based cell-based high throughput dose response assay to identify agonists of OPRD1 homodimerization. [Related pubchem assays (depositor defined):AID504326, AID504355, AID504692, AID504904, AID504905]; type: functional
Sequence of Delta-type opioid receptor (P41143 whole entry): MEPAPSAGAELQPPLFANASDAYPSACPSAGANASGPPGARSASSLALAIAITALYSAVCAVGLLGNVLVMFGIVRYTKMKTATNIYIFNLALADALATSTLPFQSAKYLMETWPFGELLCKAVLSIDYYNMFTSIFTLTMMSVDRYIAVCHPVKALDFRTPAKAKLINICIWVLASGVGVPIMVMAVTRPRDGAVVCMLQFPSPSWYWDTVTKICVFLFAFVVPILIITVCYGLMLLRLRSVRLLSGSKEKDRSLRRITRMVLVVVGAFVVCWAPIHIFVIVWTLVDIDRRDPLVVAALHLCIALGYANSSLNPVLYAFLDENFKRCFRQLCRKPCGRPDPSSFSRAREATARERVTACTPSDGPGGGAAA

Mu-type opioid receptor = Mu-type opioid receptor (Homo sapiens, UniProt P35372); assay: Counterscreen for agonists of heterodimerization of the mu 1 (OPRM1) and delta 1 (OPRD1) opioid receptors: Luminescence-based cell-based high throughput dose response assay to identify agonists of OPRM1 homodimerization.; type: functional;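 note: U2OS cells expressing OPRM1 and beta-arrestin as split beta-galactosidase partners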
Sequence of Mu-type opioid receptor (P35372 whole entry): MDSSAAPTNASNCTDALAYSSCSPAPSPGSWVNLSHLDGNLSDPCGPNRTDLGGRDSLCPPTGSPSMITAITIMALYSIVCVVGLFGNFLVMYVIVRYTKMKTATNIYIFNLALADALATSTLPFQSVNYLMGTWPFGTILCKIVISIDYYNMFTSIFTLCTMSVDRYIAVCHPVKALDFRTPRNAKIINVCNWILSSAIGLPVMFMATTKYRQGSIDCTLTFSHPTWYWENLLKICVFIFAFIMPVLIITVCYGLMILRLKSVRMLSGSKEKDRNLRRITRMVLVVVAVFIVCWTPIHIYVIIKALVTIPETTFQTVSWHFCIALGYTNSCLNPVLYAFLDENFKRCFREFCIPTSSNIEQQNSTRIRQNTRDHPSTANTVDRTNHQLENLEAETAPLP

[2] = molecular target: 5-hydroxytryptamine receptor 5A (Homo sapiens, UniProt P47898); assay: Counterscreen for agonists of OPRM1-OPRD1 heterodimerization: luminescence-based cell-based high throughput dose response assay to identify agonists of 5-hydroxytryptamine (serotonin) 5A receptor (HTR5A). [Related pubchem assays (depositor defined):AID504326, AID504355, AID504692, AID504904, AID504905]; type: functional
Sequence of 5-hydroxytryptamine receptor 5A (P47898 whole entry): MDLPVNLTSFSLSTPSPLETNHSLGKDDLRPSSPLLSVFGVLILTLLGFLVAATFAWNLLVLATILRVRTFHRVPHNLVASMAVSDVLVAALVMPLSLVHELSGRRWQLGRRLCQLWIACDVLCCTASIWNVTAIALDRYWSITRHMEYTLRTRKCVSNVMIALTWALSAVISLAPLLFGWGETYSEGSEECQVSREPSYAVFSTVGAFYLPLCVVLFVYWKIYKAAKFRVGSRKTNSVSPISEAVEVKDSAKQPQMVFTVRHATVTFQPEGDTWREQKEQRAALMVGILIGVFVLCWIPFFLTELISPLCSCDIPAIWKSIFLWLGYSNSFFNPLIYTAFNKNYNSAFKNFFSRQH

HeLa = assay: HeLa cell cytotoxicity, dose response, cytotoxicity control for MITF activator project, CellTiter-Glo luminescence, cherry-pick samples (AID 540259); type: functional, cell-based; details: Homo sapiens
Protein skinhead-1 = molecular target: T1, Protein skinhead-1 (Caenorhabditis elegans, UniProt P34707); type: functional
T1 sequence (P34707 whole entry): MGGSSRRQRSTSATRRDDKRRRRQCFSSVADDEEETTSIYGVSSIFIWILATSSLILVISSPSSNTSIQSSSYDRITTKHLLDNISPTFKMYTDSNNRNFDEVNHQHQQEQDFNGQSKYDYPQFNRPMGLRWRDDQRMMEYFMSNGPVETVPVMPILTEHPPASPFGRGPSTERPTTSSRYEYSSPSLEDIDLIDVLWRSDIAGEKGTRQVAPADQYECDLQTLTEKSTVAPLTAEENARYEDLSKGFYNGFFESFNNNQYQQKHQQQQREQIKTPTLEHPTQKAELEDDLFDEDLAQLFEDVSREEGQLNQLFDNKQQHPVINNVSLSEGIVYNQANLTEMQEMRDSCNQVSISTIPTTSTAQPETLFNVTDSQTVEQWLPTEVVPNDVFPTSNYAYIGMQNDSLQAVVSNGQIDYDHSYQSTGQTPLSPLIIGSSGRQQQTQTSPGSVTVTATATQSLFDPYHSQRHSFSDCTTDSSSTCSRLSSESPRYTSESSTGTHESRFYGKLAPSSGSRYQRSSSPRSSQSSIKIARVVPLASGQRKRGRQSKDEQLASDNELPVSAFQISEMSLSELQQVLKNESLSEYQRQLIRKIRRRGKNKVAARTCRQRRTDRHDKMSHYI

INS1 = assay: protection of INS-1E cells from cytokine death, dose response, ATP luminescence, dry powder (AID 488844); type: functional, cell-based; details: Rattus norvegicus
[3] = molecular target: Dual specificity protein kinase CLK1 (Homo sapiens, UniProt P49759); assay: CLK1 kinase inhibitors, off-target check, dose response, selectivity assay for Dyrk1A inhibitor project, biochemical, cherry-picked samples (AID 588811)
Sequence of Dual specificity protein kinase CLK1 (P49759 whole entry): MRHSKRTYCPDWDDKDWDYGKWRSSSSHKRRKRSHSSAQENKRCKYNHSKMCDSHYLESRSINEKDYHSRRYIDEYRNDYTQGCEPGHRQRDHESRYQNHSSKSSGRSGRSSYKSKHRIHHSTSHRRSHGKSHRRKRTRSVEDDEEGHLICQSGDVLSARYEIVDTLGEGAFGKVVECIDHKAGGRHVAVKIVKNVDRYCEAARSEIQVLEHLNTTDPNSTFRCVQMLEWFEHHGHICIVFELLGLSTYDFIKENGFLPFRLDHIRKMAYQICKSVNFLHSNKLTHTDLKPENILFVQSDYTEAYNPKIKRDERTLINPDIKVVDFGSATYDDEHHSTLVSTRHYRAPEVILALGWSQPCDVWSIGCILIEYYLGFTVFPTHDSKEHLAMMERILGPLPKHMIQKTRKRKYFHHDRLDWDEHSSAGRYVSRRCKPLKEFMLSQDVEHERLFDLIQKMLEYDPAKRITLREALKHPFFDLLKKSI

[4] = molecular target: T2, Dual specificity protein phosphatase 3 (Homo sapiens, UniProt P51452); assay: VHR1 phosphatase inhibitors, primary screen, biochemical, absorbance, uHTS (AID 1654)
T2 sequence (P51452 whole entry): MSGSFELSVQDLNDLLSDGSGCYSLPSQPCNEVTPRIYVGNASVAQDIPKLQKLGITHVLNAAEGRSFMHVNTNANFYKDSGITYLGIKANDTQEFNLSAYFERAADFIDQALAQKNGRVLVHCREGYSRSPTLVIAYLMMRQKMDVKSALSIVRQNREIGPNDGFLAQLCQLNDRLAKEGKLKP

[5] = molecular target: T2, Dual specificity protein phosphatase 3; assay: VHR1 phosphatase inhibitors, biochemical (AID 1878)
[6] = molecular target: T3, Dual specificity protein phosphatase 6 (Rattus norvegicus, UniProt Q64346); assay: MKP-3 phosphatase inhibitors, primary screen, biochemical, rat enzyme, in vitro (AID 425)
T3 sequence (Q64346 whole entry): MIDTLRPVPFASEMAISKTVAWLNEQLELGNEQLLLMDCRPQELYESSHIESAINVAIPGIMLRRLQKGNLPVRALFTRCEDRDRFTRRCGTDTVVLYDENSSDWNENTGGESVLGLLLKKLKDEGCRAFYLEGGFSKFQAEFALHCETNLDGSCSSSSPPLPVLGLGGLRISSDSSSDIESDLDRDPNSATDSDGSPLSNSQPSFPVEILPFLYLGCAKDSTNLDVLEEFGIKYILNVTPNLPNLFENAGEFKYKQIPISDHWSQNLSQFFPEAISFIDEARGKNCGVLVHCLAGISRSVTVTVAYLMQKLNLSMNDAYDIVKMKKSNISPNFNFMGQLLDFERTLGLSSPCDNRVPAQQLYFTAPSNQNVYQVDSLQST

[7] = molecular target: Intestinal-type alkaline phosphatase (Mus musculus, UniProt P24822); assay: PubChem AID 488785; type: functional
Sequence of Intestinal-type alkaline phosphatase (Mus musculus, UniProt P24822) (P24822 whole entry): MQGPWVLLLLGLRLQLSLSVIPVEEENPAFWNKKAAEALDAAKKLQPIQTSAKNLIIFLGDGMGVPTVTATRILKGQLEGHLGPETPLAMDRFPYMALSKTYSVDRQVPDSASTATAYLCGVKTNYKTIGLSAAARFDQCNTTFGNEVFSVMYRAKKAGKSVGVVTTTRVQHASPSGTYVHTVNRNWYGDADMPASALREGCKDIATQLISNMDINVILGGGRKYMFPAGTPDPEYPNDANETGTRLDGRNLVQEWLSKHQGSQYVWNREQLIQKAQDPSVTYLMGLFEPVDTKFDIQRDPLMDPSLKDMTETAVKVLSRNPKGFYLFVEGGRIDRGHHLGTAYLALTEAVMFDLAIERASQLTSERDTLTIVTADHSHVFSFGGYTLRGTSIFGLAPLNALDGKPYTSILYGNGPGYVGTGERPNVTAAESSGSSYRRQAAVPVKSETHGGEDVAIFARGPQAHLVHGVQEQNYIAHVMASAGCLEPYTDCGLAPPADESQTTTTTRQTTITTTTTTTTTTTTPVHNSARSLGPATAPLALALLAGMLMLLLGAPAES

[8] = molecular target: T4, Alkaline phosphatase, tissue-nonspecific isozyme (Homo sapiens, UniProt P05186); assay: TNAP enzyme inhibition by screening hits, dose response, selectivity assay for mouse IAP inhibitor project, biochemical, human TNAP, uHTS hits (AID 488906); type: functional
T4 sequence (P05186 whole entry): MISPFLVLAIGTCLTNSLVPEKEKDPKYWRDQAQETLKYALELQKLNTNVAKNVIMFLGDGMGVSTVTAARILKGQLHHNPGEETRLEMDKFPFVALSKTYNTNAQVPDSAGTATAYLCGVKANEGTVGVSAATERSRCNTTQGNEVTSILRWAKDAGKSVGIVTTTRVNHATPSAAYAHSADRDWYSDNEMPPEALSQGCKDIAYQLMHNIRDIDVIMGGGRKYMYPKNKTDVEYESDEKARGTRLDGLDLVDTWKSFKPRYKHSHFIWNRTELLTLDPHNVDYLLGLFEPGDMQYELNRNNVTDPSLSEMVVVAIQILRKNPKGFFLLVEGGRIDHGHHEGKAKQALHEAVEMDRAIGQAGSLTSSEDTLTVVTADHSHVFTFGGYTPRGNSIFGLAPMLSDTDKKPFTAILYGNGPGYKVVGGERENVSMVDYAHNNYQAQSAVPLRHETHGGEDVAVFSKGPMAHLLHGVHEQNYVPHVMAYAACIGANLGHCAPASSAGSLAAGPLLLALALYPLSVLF

[9] = molecular target: Intestinal-type alkaline phosphatase (Homo sapiens, UniProt P09923); assay: inhibition of human intestinal alkaline phosphatase – biochemical, dose response (AID 488876); type: functional
Sequence of Intestinal-type alkaline phosphatase (Homo sapiens, UniProt P09923) (P09923 whole entry): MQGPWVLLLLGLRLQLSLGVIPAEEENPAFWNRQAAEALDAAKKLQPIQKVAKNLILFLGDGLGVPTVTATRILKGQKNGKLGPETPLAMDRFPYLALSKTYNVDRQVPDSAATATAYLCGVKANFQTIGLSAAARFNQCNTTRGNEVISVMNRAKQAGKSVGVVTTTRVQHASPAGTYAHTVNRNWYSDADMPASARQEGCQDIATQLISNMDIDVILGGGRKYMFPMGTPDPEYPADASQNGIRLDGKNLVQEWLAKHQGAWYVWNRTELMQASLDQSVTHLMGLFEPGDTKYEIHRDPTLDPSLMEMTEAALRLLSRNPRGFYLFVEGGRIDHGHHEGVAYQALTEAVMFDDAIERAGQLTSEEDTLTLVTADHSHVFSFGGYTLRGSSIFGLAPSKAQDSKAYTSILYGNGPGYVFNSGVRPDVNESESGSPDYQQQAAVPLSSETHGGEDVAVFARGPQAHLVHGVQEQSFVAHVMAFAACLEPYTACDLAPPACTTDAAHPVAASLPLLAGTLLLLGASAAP

[10] = molecular target: DNA (cytosine-5)-methyltransferase 1 (Homo sapiens, UniProt P26358); assay: DNMT1 methyltransferase inhibitors, confirmation, biochemical, fluorescent molecular beacon (AID 602386); type: functional
[11] = molecular target: T5, Small ubiquitin-related modifier 2 (Homo sapiens, UniProt P61956); assay: SUMO2–SIM peptide binding inhibitors, dose response, selectivity assay for SUMO1 interaction inhibitor project, biochemical, fluorescence polarization, uHTS hits (AID 624385); type: functional; details: read-out: IC50_Mean
T5 sequence (P61956 whole entry): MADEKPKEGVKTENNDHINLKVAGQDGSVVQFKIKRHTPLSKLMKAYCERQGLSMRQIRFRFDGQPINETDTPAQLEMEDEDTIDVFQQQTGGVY

[12] = molecular target: T6, Small ubiquitin-related modifier 1 (Homo sapiens, UniProt P63165); assay: inhibitors of SUMO1 peptide binding, dose response, biochemical, fluorescence polarization, uHTS hits (AID 624382); type: functional; details: read-out: IC50_Mean
T6 sequence (P63165 whole entry): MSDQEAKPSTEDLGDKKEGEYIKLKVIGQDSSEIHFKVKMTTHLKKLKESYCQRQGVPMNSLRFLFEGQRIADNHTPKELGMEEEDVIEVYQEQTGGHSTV

[13] = molecular target: T5, Small ubiquitin-related modifier 2; assay: inhibitors of SUMO2 protein-protein interaction, dose response, selectivity assay for SUMO1 interaction inhibitor project, biochemical, FRET, human SUMO2, uHTS hits (AID 624384); type: functional; details: read-out: IC50_Mean
[14] = molecular target: T6, Small ubiquitin-related modifier 1; assay: inhibitors of SUMO1 partner interactions, dose response, biochemical, FRET (AID 624383); type: functional; details: read-out: IC50_Mean
Albumin = Albumin (Bos taurus, UniProt P02769); assay: Counterscreen for inhibitors of T-cell receptor (TCR)-CD3 interaction: Fluorescence-based biochemical high throughput dose response assay to identify inhibitors of T-cell receptor (TCR)-CD3 interaction using a TAMRA-labeled BSA probe.; type: functional
Sequence of Albumin (P02769 whole entry): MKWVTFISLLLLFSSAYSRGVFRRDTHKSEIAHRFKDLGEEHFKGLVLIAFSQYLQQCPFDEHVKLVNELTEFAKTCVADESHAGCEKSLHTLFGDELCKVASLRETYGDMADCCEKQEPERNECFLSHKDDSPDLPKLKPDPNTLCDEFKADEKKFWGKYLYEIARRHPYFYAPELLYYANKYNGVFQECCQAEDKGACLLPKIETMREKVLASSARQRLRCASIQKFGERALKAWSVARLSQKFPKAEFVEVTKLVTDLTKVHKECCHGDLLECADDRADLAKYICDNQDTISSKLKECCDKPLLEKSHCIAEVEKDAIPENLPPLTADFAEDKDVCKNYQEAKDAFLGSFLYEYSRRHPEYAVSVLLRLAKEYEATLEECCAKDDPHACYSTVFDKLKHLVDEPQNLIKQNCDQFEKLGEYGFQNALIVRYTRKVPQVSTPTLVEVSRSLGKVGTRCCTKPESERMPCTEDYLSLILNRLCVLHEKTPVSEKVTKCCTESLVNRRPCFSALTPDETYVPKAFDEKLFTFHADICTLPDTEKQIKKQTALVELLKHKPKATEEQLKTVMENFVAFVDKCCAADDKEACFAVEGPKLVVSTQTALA

Caspase-6 = molecular target: T7, Caspase-6 (Homo sapiens, UniProt P55212); assay: human caspase-6 inhibitors, dose response, biochemical, VEID-R110 fluorescence, cherry-pick (AID 720632)
T7 sequence (P55212 whole entry): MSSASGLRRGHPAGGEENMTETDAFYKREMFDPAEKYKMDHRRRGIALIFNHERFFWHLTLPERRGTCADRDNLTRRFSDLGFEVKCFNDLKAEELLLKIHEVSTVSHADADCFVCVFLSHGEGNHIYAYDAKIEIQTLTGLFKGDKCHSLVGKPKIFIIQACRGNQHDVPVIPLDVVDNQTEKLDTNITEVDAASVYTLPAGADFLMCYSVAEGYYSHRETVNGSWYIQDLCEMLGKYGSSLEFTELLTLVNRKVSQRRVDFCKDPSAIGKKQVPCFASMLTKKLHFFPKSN

[15] = THP-1 cell cytotoxicity, dose response, cytotoxicity control for Vif-APOBEC3G degradation inhibitor project, THP-1 cells (AID 1117359); type: functional; details: Human immunodeficiency virus 1, THP-1

CCc1ccc(NC(=O)N(CCCN2CCOCC2)Cc2cccs2)cc1
EC50 [1]: > 92.5 µM (inactive) | EC50 (Mu-type opioid receptor): > 92.5 µM (inactive) | EC50 [2]: > 92.5 µM (inactive)

CN(N=O)c1ccc(CC2CCc3ccccc32)cc1 (centres undefined)
AC50 (HeLa): 79.8 µM (active) | IC50 (Protein skinhead-1): 58.5 µM (inactive)

CC(=O)Nc1ccc(S(=O)(=O)/N=C2\C(=O)c3ccccc3C(O)=C2N2CCN(Cc3ccccc3)CC2)cc1
EC50 [1]: > 92.5 µM (inactive) | EC50 (Mu-type opioid receptor): > 92.5 µM (inactive) | EC50 [2]: > 92.5 µM (inactive)

COc1ccc(S(=O)(=O)N(C)C[C@H]2Oc3c(NC(=O)Nc4cccc5ccccc45)cccc3C(=O)N([C@H](C)CO)C[C@H]2C)cc1
AC50 (INS1): 41.5 µM (active)

c1cc(-c2ccc3c(c2)OCO3)nc(Nc2ccc3c(c2)OCO3)n1
AC50 [3]: 2.04 µM (active)

O=C(N/N=C/c1cn(Cc2cccc(F)c2)c2ccccc12)c1cc(O)cc(O)c1
IC50 [4]: 4.76 µM (active) | IC50 [5]: 2.08 µM (active) | IC50 [6]: 74.4 µM (active) | IC50 [7]: 2.7 µM (active) | IC50 [8]: > 100 µM (inactive) | IC50 [9]: > 100 µM (inactive) | IC50 [10]: 2.39 µM (active) | IC50 [11]: 50.6 µM (inactive) | IC50 [12]: 10.3 µM (active) | IC50 [13]: 2.49 µM (active) | IC50 [14]: 6.82 µM (active) | IC50 (Albumin): > 94.1 µM (inactive) | AC50 (Caspase-6): 0.461 µM (active) | CC50 [15]: > 40 µM (active)
